Reference: patent US4255183A, “Substituted phenyl urea and herbicides for use in paddy field” (Hokko Chemical Industry Co., Ltd., priority 1977, dated 1981)
Like-named read-outs stand apart in the source and are kept apart here.

Experiments:
paddy rice [1] = experiment: Test Example 1: pot test on selectivity, inhibition of paddy rice; assay type: in vivo; conditions: for Inhibition (%) by treatment at 1-leaf stage, paddy rice / Inhibition (%) by treatment at 5-leaf stage, paddy rice / inhibition at 750 g/ha / inhibition at 1500 g/ha / inhibition at 3000 g/ha / inhibition at 6000 g/ha / inhibition at 9000 g/ha: dry weight 30 days after treatment; for inhibition at 750 g/ha / inhibition at 1500 g/ha / inhibition at 3000 g/ha / inhibition at 6000 g/ha / inhibition at 9000 g/ha: Oryza sativa, 720 h; for selectivity to paddy rice: trans-form, cis-form and mixtures compared
Method in brief: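 Alluvial paddy soil in pots sown with Echinochloa crus-galli var. oryzicola (50 seeds) and paddy rice (30 seeds), submerged about 1 cm. Dry weights taken 30 days after chemical treatment; inhibition rate calculated relative to untreated area.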

paddy rice [2] = experiment: whole plant or invertebrate; assay type: in vivo, paddy rice (Asahi species); conditions: Oryza sativa, 720 h, granule, 30 days; for inhibition at 1000 g/ha: 100 g/10 are; for inhibition at 3000 g/ha: 300 g/10 are; for inhibition at 9000 g/ha: 900 g/10 are
Method in brief: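 Barnyardgrass seeded in flooded alluvial paddy soil (~3 cm water) in concrete pots, with 2.5-leaf Asahi rice transplanted before weed emergence. Granules applied at weed 1-leaf or 5-leaf stage. Dry weights measured 30 days after treatment; inhibition rate calculated versus untreated area.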

[3] = system: Echinochloa crus-galli var. oryzicola; experiment: Test Example 3: field test in transplanted paddy field, Echinochloa crus-galli var. oryzicola; assay type: in vivo; conditions: Echinochloa crus-galli, 1440 h; 300 g/10 are, granule, applied at 4-leaf stage, examined 60 days after transplantation; read-out: Inhibition (%) of E. crus-galli var. oryzicola
Experimental: In a Wagner pot of 1/500 are, paddy field soil (alluvial soil) was placed and 50 seeds of Echinochloa crus-galli var. oryzicola and 30 seeds of paddy rice were seeded in the surface layer of said soil and the submerging depth was kept at about 1 cm. When Echinochloa crus-galli var. oryzicola reached at the one leaf stage and 5-leaf stage, the emulsion of a predetermined concentration, prepared according to Example 4 was added dropwise. After 30 days from the treatment with the chemical, dry weights of Echinochloa crus-galli var. oryzicola and paddy rice were measured and the inhibition rate was calculated with reference to untreated area. [formula]
In a 10 m^2 paddy field, young seedlings of paddy rice (Asahi species) at the 2,5-leaf stage were transplanted 30 days after the puddling the submerging at the depth of 3-5 cm. 25 Days after the transplantation, when Echinochloa crus-galli var. oryzicola reached 4-leaf stage, a predetermined dose of the granule prepared according to Example 1 was applied. Test results were examined 60 days after the transplantation of paddy rice in the similar manner as in Test Example 1.
Comparative chemicals used were all those commercially available and in the case of the comparative chemical 2, CNP was applied 3 days after the transplantation of paddy rice and after 25 days a mixture of Benthiocarb and Simetryne was applied.

[4] = rice at 3.5 leaves stage, read-out: Inhibition (%) by treatment at 1-leaf stage of E. crus-galli var. oryzicola, paddy rice
[5] = rice at 7 leaves stage, read-out: Inhibition (%) by treatment at 5-leaf stage of E. crus-galli var. oryzicola, paddy rice
[6] = 75 g/10 are, 1-leaf stage, read-out: Inhibition (%) by treatment at 1-leaf stage, paddy rice
[7] = 75 g/10 are, 5-leaf stage, read-out: Inhibition (%) by treatment at 5-leaf stage, paddy rice
[8] = 150 g/10 are, 1-leaf stage, read-out: Inhibition (%) by treatment at 1-leaf stage, paddy rice
[9] = 150 g/10 are, 5-leaf stage, read-out: Inhibition (%) by treatment at 5-leaf stage, paddy rice
[10] = 300 g/10 are, 1-leaf stage, read-out: Inhibition (%) by treatment at 1-leaf stage, paddy rice
[11] = 300 g/10 are, 5-leaf stage, read-out: Inhibition (%) by treatment at 5-leaf stage, paddy rice
[12] = 600 g/10 are, 1-leaf stage, read-out: Inhibition (%) by treatment at 1-leaf stage, paddy rice
[13] = 600 g/10 are, 5-leaf stage, read-out: Inhibition (%) by treatment at 5-leaf stage, paddy rice
[14] = 900 g/10 are, 1-leaf stage, read-out: Inhibition (%) by treatment at 1-leaf stage, paddy rice
[15] = 900 g/10 are, 5-leaf stage, read-out: Inhibition (%) by treatment at 5-leaf stage, paddy rice

CC=CCOc1ccc(NC(=O)N(C)C)cc1 [Mixture of trans- and cis-forms 1:1]
Inhibition (%) by treatment at 1-leaf stage, paddy rice (paddy rice [1]; 75 g/10 are, 1-leaf stage): 0% | Inhibition (%) by treatment at 5-leaf stage, paddy rice (paddy rice [1]; 75 g/10 are, 5-leaf stage): 0% | Inhibition (%) by treatment at 1-leaf stage, paddy rice (paddy rice [1]; 150 g/10 are, 1-leaf stage): 0% | Inhibition (%) by treatment at 5-leaf stage, paddy rice (paddy rice [1]; 150 g/10 are, 5-leaf stage): 0% | Inhibition (%) by treatment at 1-leaf stage, paddy rice (paddy rice [1]; 300 g/10 are, 1-leaf stage): 0% | Inhibition (%) by treatment at 5-leaf stage, paddy rice (paddy rice [1]; 300 g/10 are, 5-leaf stage): 0% | Inhibition (%) by treatment at 1-leaf stage, paddy rice (paddy rice [1]; 600 g/10 are, 1-leaf stage): 0% | Inhibition (%) by treatment at 5-leaf stage, paddy rice (paddy rice [1]; 600 g/10 are, 5-leaf stage): 0% | Inhibition (%) by treatment at 1-leaf stage, paddy rice (paddy rice [1]; 900 g/10 are, 1-leaf stage): 3% | Inhibition (%) by treatment at 5-leaf stage, paddy rice (paddy rice [1]; 900 g/10 are, 5-leaf stage): 0% | inhibition at 1000 g/ha (paddy rice [2]; [4]): 0% | inhibition at 1000 g/ha (paddy rice [2]; [5]): 0% | inhibition at 3000 g/ha (paddy rice [2]; [4]): 0% | inhibition at 3000 g/ha (paddy rice [2]; [5]): 0% | inhibition at 9000 g/ha (paddy rice [2]; [4]): 0% | inhibition at 9000 g/ha (paddy rice [2]; [5]): 0% | inhibition at 3000 g/ha [3]: 100%

C/C=C\COc1ccc(NC(=O)N(C)C)cc1 [cis-form, 3-(4-cis-crotyloxyphenyl)-1,1-dimethyl urea]
inhibition at 750 g/ha (paddy rice [1]; [6]): 0% | inhibition at 750 g/ha (paddy rice [1]; [7]): 0% | inhibition at 1500 g/ha (paddy rice [1]; [8]): 0% | inhibition at 1500 g/ha (paddy rice [1]; [9]): 0% | inhibition at 3000 g/ha (paddy rice [1]; [10]): 0% | inhibition at 3000 g/ha (paddy rice [1]; [11]): 0% | inhibition at 6000 g/ha (paddy rice [1]; [12]): 0% | inhibition at 6000 g/ha (paddy rice [1]; [13]): 0% | inhibition at 9000 g/ha (paddy rice [1]; [14]): 3% | inhibition at 9000 g/ha (paddy rice [1]; [15]): 0% | selectivity to paddy rice (paddy rice [1]): equivalent | inhibition at 1000 g/ha (paddy rice [2]; [4]): 0% | inhibition at 1000 g/ha (paddy rice [2]; [5]): 0% | inhibition at 3000 g/ha (paddy rice [2]; [4]): 0% | inhibition at 3000 g/ha (paddy rice [2]; [5]): 0% | inhibition at 9000 g/ha (paddy rice [2]; [4]): 0% | inhibition at 9000 g/ha (paddy rice [2]; [5]): 0% | inhibition at 3000 g/ha [3]: 100%

C/C=C/COc1ccc(NC(=O)N(C)C)cc1 [trans-form, 3-(4-trans-crotyloxyphenyl)-1,1-dimethyl urea]
inhibition at 750 g/ha (paddy rice [1]; [6]): 0% | inhibition at 750 g/ha (paddy rice [1]; [7]): 0% | inhibition at 1500 g/ha (paddy rice [1]; [8]): 0% | inhibition at 1500 g/ha (paddy rice [1]; [9]): 0% | inhibition at 3000 g/ha (paddy rice [1]; [10]): 0% | inhibition at 3000 g/ha (paddy rice [1]; [11]): 0% | inhibition at 6000 g/ha (paddy rice [1]; [12]): 0% | inhibition at 6000 g/ha (paddy rice [1]; [13]): 0% | inhibition at 9000 g/ha (paddy rice [1]; [14]): 2% | inhibition at 9000 g/ha (paddy rice [1]; [15]): 0% | selectivity to paddy rice (paddy rice [1]): equivalent | inhibition at 1000 g/ha (paddy rice [2]; [4]): 0% | inhibition at 1000 g/ha (paddy rice [2]; [5]): 0% | inhibition at 3000 g/ha (paddy rice [2]; [4]): 0% | inhibition at 3000 g/ha (paddy rice [2]; [5]): 0% | inhibition at 9000 g/ha (paddy rice [2]; [4]): 0% | inhibition at 9000 g/ha (paddy rice [2]; [5]): 0% | inhibition at 3000 g/ha [3]: 100%
